Data: ChEMBL document CHEMBL1201862, “PubChem BioAssay data set” (2004)
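In this assay, cells in 96-well plates receive the compound at five concentrations for 48 hours. Endpoints are linearly interpolated between the surrounding concentrations. Abbreviation: GI50, concentration required for 50% inhibition of growth.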 The source made the active and inactive calls. No stated cut-off is given here; in the data, active = GI50 up to about 1.1 µM and inactive = higher.

Assays:
Assay in all cases: growth of human tumour cells (NCI), 48 h
UO-31 = test system: UO-31
OVCAR-3 = test system: OVCAR-3
HCT-116 = test system: HCT-116
A498 = test system: A498
SN12C = test system: SN12C
OVCAR-8 = test system: OVCAR-8
Malme-3M = test system: Malme-3M
OVCAR-5 = test system: OVCAR-5
IGROV-1 = test system: IGROV-1
NCI-H522 = test system: NCI-H522
K562 = test system: K562
NCI-H460 = test system: NCI-H460
EKVX = test system: EKVX
MOLT-4 = test system: MOLT-4
CCRF-CEM = test system: CCRF-CEM
SR = test system: SR

Measured: GI50

O=[N+]([O-])c1ccc(/C=N/C23CC4CC(CC(C4)C2)C3)cc1
inactive: UO-31 > 100 µM | OVCAR-3 > 100 µM | HCT-116 > 100 µM | A498 > 100 µM | SN12C > 100 µM | OVCAR-8 > 100 µM | Malme-3M > 100 µM | OVCAR-5 > 100 µM | IGROV-1 > 100 µM | NCI-H522 > 100 µM | K562 54.7 µM | NCI-H460 > 100 µM | EKVX > 100 µM | MOLT-4 > 100 µM | CCRF-CEM 80.4 µM

O=C1c2c(c3c4ccccc4n(CC4CO4)c3c3[nH]c4ccccc4c23)C(=O)N1Cc1ccccc1 (stereo not drawn)
inactive: UO-31 > 100 µM | OVCAR-3 > 100 µM | SR > 100 µM | HCT-116 > 100 µM | A498 31.9 µM | SN12C > 100 µM | OVCAR-8 48.2 µM | Malme-3M > 100 µM | OVCAR-5 > 100 µM | IGROV-1 67 µM | NCI-H522 25.4 µM | K562 95.7 µM | NCI-H460 89.5 µM | MOLT-4 38.6 µM | CCRF-CEM > 100 µM

CC1=NN(C(=O)Cc2ccccc2)C(=O)/C1=C\c1ccc([N+](=O)[O-])cc1
inactive: UO-31 > 100 µM | OVCAR-3 > 100 µM | HCT-116 > 100 µM | A498 > 100 µM | SN12C > 100 µM | OVCAR-8 > 100 µM | Malme-3M > 100 µM | OVCAR-5 > 100 µM | IGROV-1 > 100 µM | NCI-H522 > 100 µM | K562 > 100 µM | NCI-H460 > 100 µM | EKVX > 100 µM | MOLT-4 > 100 µM | CCRF-CEM > 100 µM

N#CCN1C(=O)c2cc([N+](=O)[O-])cc3cc([N+](=O)[O-])cc(c23)C1=O
inactive: UO-31 13.8 µM | OVCAR-3 13.4 µM | SR 1.36 µM | HCT-116 7.18 µM | A498 35.6 µM | SN12C 13.1 µM | OVCAR-8 13.8 µM | Malme-3M 14.8 µM | OVCAR-5 18.9 µM | IGROV-1 13.2 µM | K562 5.68 µM | NCI-H460 14.9 µM | EKVX 23.6 µM | MOLT-4 2.38 µM | CCRF-CEM 2.77 µM

O=c1c2ccccc2nc(-c2cccc(Cl)c2)n1NCC1(O)OCC(O)C(O)C1O (stereo not drawn)
inactive: UO-31 > 100 µM | OVCAR-3 > 100 µM | SR 43.9 µM | HCT-116 > 100 µM | A498 > 100 µM | SN12C > 100 µM | OVCAR-8 > 100 µM | Malme-3M > 100 µM | OVCAR-5 > 100 µM | NCI-H522 37.8 µM | K562 45.7 µM | NCI-H460 > 100 µM | EKVX > 100 µM | MOLT-4 48.2 µM | CCRF-CEM 41.7 µM

CCOC(=O)C1=C(C)N(c2ccc(C)cc2)C2=C(C(=O)N(c3ccccc3)C2c2ccccc2)C1c1ccccc1 (stereo not drawn)
inactive: UO-31 21 µM | OVCAR-3 > 25 µM | SR 17.7 µM | HCT-116 17.6 µM | A498 > 25 µM | SN12C > 25 µM | OVCAR-8 > 25 µM | Malme-3M > 25 µM | IGROV-1 > 25 µM | K562 19.8 µM | NCI-H460 13.3 µM | EKVX > 25 µM | MOLT-4 7.82 µM | CCRF-CEM 20.8 µM

CCOC(=O)c1[nH]c(COC(C)=O)c(CCCOC(C)=O)c1CCCOC(C)=O
inactive: OVCAR-3 > 100 µM | SR > 100 µM | HCT-116 > 100 µM | A498 > 100 µM | SN12C > 100 µM | OVCAR-8 > 100 µM | Malme-3M > 100 µM | OVCAR-5 > 100 µM | IGROV-1 > 100 µM | NCI-H522 23 µM | K562 > 100 µM | NCI-H460 > 100 µM | EKVX > 100 µM | MOLT-4 > 100 µM | CCRF-CEM > 100 µM

CC1=CC=C2C(C)(C)CC[C@@H]3OC(=O)[C@H]1[C@]23C
inactive: UO-31 > 100 µM | OVCAR-3 > 100 µM | SR > 100 µM | HCT-116 > 100 µM | A498 > 100 µM | SN12C > 100 µM | OVCAR-8 > 100 µM | Malme-3M > 100 µM | OVCAR-5 > 100 µM | IGROV-1 > 100 µM | NCI-H522 > 100 µM | K562 > 100 µM | EKVX > 100 µM | MOLT-4 > 100 µM | CCRF-CEM > 100 µM

O=C1C2C=CC(n3[nH]c(=O)n(Cc4ccccc4)c3=O)CC2C(=O)N1c1cccc(Cl)c1 (stereo not drawn)
inactive: UO-31 > 100 µM | OVCAR-3 > 100 µM | SR > 100 µM | HCT-116 > 100 µM | A498 > 100 µM | SN12C > 100 µM | OVCAR-8 > 100 µM | Malme-3M > 100 µM | OVCAR-5 > 100 µM | IGROV-1 > 100 µM | NCI-H522 > 100 µM | K562 > 100 µM | NCI-H460 > 100 µM | EKVX > 100 µM | CCRF-CEM > 100 µM

OCc1cc2c(cn1)[nH]c1ccc(NCc3ccccc3)cc12
inactive: UO-31 20.7 µM | OVCAR-3 19.4 µM | HCT-116 16.4 µM | A498 17.8 µM | SN12C 34.9 µM | OVCAR-8 29.4 µM | Malme-3M 28.7 µM | OVCAR-5 27.7 µM | IGROV-1 43 µM | NCI-H522 15.7 µM | K562 23 µM | NCI-H460 24.4 µM | EKVX 37.1 µM | MOLT-4 17.5 µM | CCRF-CEM 20.7 µM

O=C1OC(c2ccccc2)=N/C1=C/NC(Cc1ccccc1)C(=O)O (stereo not drawn)
inactive: UO-31 > 100 µM | OVCAR-3 > 100 µM | SR > 100 µM | HCT-116 > 100 µM | A498 > 100 µM | SN12C > 100 µM | OVCAR-8 > 100 µM | Malme-3M > 100 µM | OVCAR-5 > 100 µM | IGROV-1 > 100 µM | NCI-H522 > 100 µM | K562 > 100 µM | NCI-H460 > 100 µM | EKVX > 100 µM | MOLT-4 > 100 µM | CCRF-CEM > 100 µM

N#CC(C#N)=CSc1ccccc1
inactive: UO-31 13.3 µM | OVCAR-3 34.4 µM | SR 7.6 µM | HCT-116 23 µM | SN12C 19.6 µM | OVCAR-8 17.8 µM | OVCAR-5 26.3 µM | IGROV-1 17.3 µM | NCI-H522 11.8 µM | K562 80.7 µM | NCI-H460 34 µM | EKVX 48.2 µM | MOLT-4 13.2 µM | CCRF-CEM 1.52 µM

N#CC(C(=O)Nc1ccccc1)C1=C(Cl)C(=O)c2ccccc2C1=O (stereo not drawn)
inactive: UO-31 13.9 µM | OVCAR-3 15.6 µM | HCT-116 14.2 µM | A498 47.1 µM | SN12C 15.7 µM | OVCAR-8 18.9 µM | Malme-3M 13.8 µM | OVCAR-5 17.6 µM | IGROV-1 17.9 µM | NCI-H522 15.5 µM | K562 13.6 µM | NCI-H460 33.9 µM | EKVX 17.5 µM | CCRF-CEM 7.59 µM

COc1ccc(/C=C/c2nnc(S)[nH]2)cc1OC
inactive: UO-31 > 100 µM | OVCAR-3 > 100 µM | SR > 100 µM | HCT-116 > 100 µM | A498 > 100 µM | SN12C > 100 µM | OVCAR-8 > 100 µM | Malme-3M > 100 µM | OVCAR-5 > 100 µM | IGROV-1 > 100 µM | K562 > 100 µM | NCI-H460 > 100 µM | MOLT-4 > 100 µM | CCRF-CEM > 100 µM

O=C1C(Cl)C(c2cc(Br)cc(Br)c2O)N1n1cnc2ccccc2c1=O (stereo not drawn)
inactive: UO-31 20.7 µM | OVCAR-3 22.3 µM | SR 7.76 µM | HCT-116 18.9 µM | SN12C 27.5 µM | OVCAR-8 24.7 µM | Malme-3M 19 µM | OVCAR-5 19.4 µM | IGROV-1 23.4 µM | NCI-H522 19 µM | K562 26.2 µM | NCI-H460 12.6 µM | EKVX 25.1 µM | MOLT-4 7.46 µM | CCRF-CEM 9.29 µM

Nc1nc2c(ncn2CC(CO)CC(c2ccccc2)P(=O)(O)O)c(=O)[nH]1 (stereo not drawn)
inactive: UO-31 > 100 µM | OVCAR-3 > 100 µM | SR > 100 µM | HCT-116 > 100 µM | A498 > 100 µM | SN12C > 100 µM | OVCAR-8 > 100 µM | Malme-3M > 100 µM | OVCAR-5 > 100 µM | IGROV-1 > 100 µM | NCI-H522 > 100 µM | K562 > 100 µM | NCI-H460 > 100 µM | EKVX > 100 µM | MOLT-4 > 100 µM | CCRF-CEM > 100 µM

CC1=CC(=O)CC2(C)CC[C@@H]3C[C@]12OC3(C)C (stereo partly drawn)
inactive: UO-31 > 100 µM | OVCAR-3 > 100 µM | SR > 100 µM | HCT-116 > 100 µM | A498 > 100 µM | SN12C > 100 µM | OVCAR-8 > 100 µM | Malme-3M > 100 µM | OVCAR-5 > 100 µM | IGROV-1 > 100 µM | NCI-H522 > 100 µM | K562 > 100 µM | NCI-H460 > 100 µM | EKVX > 100 µM | MOLT-4 > 100 µM | CCRF-CEM > 100 µM

N=C1NC(=O)N2CC12 (stereo not drawn) [IMEXON]
inactive: UO-31 > 100 µM | OVCAR-3 > 100 µM | SR 51.4 µM | A498 > 100 µM | SN12C > 100 µM | OVCAR-8 > 100 µM | Malme-3M > 100 µM | IGROV-1 > 100 µM | NCI-H522 > 100 µM | K562 73.1 µM | NCI-H460 > 100 µM | EKVX > 100 µM | MOLT-4 > 100 µM | CCRF-CEM 50.8 µM
